{"source": "patent US7799809B2", "about": "“Carboxamide compounds and their use as calpain inhibitors” (Abbott GmbH & Co. KG, priority 2006, dated 2010)", "assay_type_in_all_cases": "biochemical", "key": {"cathepsin B": {"target": "T1, cathepsin B (Homo sapiens, UniProt P07858)", "T1 construct": "cathepsin B—isolated from human liver (Calbiochem #219362); purchased Calbiochem 219362; host or cells: human liver (tissue-derived)", "assay": "Cathepsin B enzyme inhibition in vitro (kinetic fluorescence assay)", "conditions": "cathepsin B isolated from human liver vs calpain I", "description": "(§1) The following solutions and buffers were employed: • HBS (for 40 ml): 800 μl M HEPES; 2.16 ml 100 mM KCl; 4.8 ml 1M NaCl; 3.59 ml 5% glucose; 60 μl μM MgSO4; 400 μl 100 mM Na pyruvate, 28.19 ml water; pH 7.2-7.5. • lysis buffer (for 20 ml): 400 μl M Tris pH 8.2; 2.74 ml 1M NaCl; 520 μl 0.5M EDTA; 2 ml 10% triton X-100; 0.8 ml (=1:25) CompletePlus (1 tablet/2 ml H2O); 200 μl 100 mM Pefabloc; 13.34 ml water, pH 8.2. • TBST (10×) (for 1 l): 100 mM Tris (12.1 g); 1.5M NaCl (87 g); 1% Tween 20 (10 g), adjusted to pH 8. I Enzyme Inhibition In Vitro: • Testing for blockade of the corresponding enzymic activities was carried out by means of kinetic fluorescence assays (excitation 390 nm, emission 460 nm). • Apparent Ki values were calculated from the experimentally determined IC50 values by the Cheng-Prussoff relation assuming a reversible competitive enzyme inhibition. The Km values of the substrates used under the assay conditions indicated above were: 90 μM (Z-Phe-Arg-AMC, cathepsin B), 10 μM (Z-Gly-Pro-Arg-AMC, cathepsin K), 2 μM (Z-Phe-Arg-AMC, cathepsin L), and 30 μM (Z-Val-Val-Arg-AMC, cathepsin S). • The indicated Ki values are averages of the inhibition constants calculated on the basis of 2 to 4 independent dose-effect plots.\n(§2) The following assays were used: • 1. Calpain I: • 20 nM calpain-I—isolated from human erythrocytes (Calbiochem #208713), 100 μM Suc-Leu-Tyr-AMC (Bachem #1-1355) as substrate in buffer with 62 mM imidazole, 0.3 mM CaCl2, 0.10% CHAPS, 0.05% BSA, 1 mM DTT at pH 7.3 and room temperature. • 2. Cathepsin B: • 0.25 nM cathepsin B—isolated from human liver (Calbiochem #219362), 100 μM Z-Phe-Arg-AMC (Bachem #I-1160) as substrate 50 mM MES, 2 mM EDTA, 0.05% Brij 35, 2.5 mM L-cysteine, pH 6.0, room temperature. • 3. Cathepsin K: • 3 nM cathepsin K—activated from recombinant human procathepsin K from E. coli (Calbiochem #342001), 10 μM Z-Gly-Pro-Arg-AMC (Biomol #P-142) as substrate in 50 mM MES, 2 mM EDTA, 0.05% Brij 35, 2.5 mM L-cysteine, pH 6.0, room temperature. • 4. Cathepsin L: • 1 nM cathepsin L—isolated from human liver (Calbiochem #219402), 2 μM Z-Phe-Arg-AMC (Bachem #1-1160) as substrate in 50 mM MES, 2 mM EDTA, 0.05% Brij 35, 2.5 mM L-cysteine, pH 6.0, room temperature. • 5. Cathepsin S: • 0.5 nM recombinant human cathepsin S from E. coli (Calbiochem #219343), 20 μM Z-Val-Val-Arg-AMC (Bachem #1-1540) as substrate in 50 mM MES, 2 mM EDTA, 0.05% Brij 35, 2.5 mM L-cysteine, pH 6.0, room temperature. • The results of the in vitro determination are indicated in Table 1. The following abbreviations are used in Table 1: • The “Calpain activity” column, ++ stands for a calpain Ki (Ki(calpain)) of ≦40 nM and + means: 40 nM<Ki(Calpain)≦100 nM. • The “Sel. cat. B” column indicates the Ki(cathepsin B)/Ki(calpain) ratio. In this connection, ++ means a Ki(cathepsin B)/Ki(calpain) ratio of ≧30 and + means 10≦Ki(cathepsin B)/Ki(calpain)<30. • The “Sel. cat. K” column indicates the Ki(cathepsin K)/Ki(calpain) ratio. In this connection, ++ means a Ki(cathepsin K)/Ki(calpain) ratio of ≧30 and + means 10≦Ki(cathepsin K)/Ki(calpain)<30. • The “Sel. cat. L” column indicates the Ki(cathepsin L)/Ki(calpain) ratio. In this connection, ++ means a Ki(cathepsin L)/Ki(calpain) ratio of ≧50 and + means 30≦Ki(cathepsin L)/Ki(calpain)<50. • The “Sel. cat. S” column indicates the Ki(cathepsin S)/Ki(calpain) ratio. In this connection, ++ means a Ki(cathepsin S)/Ki(calpain) ratio of ≧100 and + means 50≦Ki(cathepsin S)/Ki(calpain)<100."}, "cathepsin K": {"target": "T2, cathepsin K (Homo sapiens, UniProt P43235)", "T2 construct": "purchased Calbiochem 342001; host or cells: E. coli", "T2 sequence (P43235 115-329)": "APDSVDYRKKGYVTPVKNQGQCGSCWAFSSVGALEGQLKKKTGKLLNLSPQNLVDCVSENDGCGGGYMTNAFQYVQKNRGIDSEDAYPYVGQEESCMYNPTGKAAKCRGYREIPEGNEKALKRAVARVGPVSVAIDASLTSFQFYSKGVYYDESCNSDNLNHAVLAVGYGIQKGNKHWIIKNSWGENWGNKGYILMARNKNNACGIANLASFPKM", "assay": "Cathepsin K enzyme inhibition in vitro (kinetic fluorescence assay)", "conditions": "cathepsin K activated from recombinant human procathepsin K vs calpain I", "description": "as §1, §2"}, "cathepsin L": {"target": "T3, cathepsin L (Homo sapiens, UniProt P07711)", "T3 construct": "cathepsin L—isolated from human liver (Calbiochem #219402); purchased Calbiochem 219402; host or cells: human liver (tissue-derived)", "T3 sequence (P07711 114-333)": "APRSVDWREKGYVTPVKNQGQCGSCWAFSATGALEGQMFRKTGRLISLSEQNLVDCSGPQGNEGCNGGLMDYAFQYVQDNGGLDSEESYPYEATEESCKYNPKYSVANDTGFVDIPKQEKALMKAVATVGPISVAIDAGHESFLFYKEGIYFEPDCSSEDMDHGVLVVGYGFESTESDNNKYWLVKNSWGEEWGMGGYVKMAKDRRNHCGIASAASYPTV", "assay": "Cathepsin L enzyme inhibition in vitro (kinetic fluorescence assay)", "conditions": "cathepsin L isolated from human liver vs calpain I", "how_it_was_run": "(§3)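 cat B 0.25 nM + Z-Phe-Arg-AMC 100 μM; cat L 1 nM + Z-Phe-Arg-AMC 2 μM; cat S 0.5 nM (E. coli-expressed) + Z-Val-Val-Arg-AMC 20 μM. 50 mM MES pH 6.0, 2.5 mM L-Cys, RT. Ex 390/em 460, kinetic; Ki app = Cheng-Prusoff from IC50, mean of 2–4 curves.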"}, "cathepsin S": {"target": "T4, cathepsin S (Homo sapiens, UniProt P25774)", "T4 construct": "purchased Calbiochem 219343; host or cells: E. coli", "T4 sequence (P25774 115-331)": "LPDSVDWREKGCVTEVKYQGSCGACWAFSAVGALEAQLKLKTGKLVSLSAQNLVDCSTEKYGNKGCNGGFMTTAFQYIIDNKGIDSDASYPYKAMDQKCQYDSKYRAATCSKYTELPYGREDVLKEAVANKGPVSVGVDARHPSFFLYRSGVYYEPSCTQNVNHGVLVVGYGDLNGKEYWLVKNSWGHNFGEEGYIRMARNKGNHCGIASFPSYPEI", "assay": "Cathepsin S enzyme inhibition in vitro (kinetic fluorescence assay)", "conditions": "recombinant human cathepsin S vs calpain I", "how_it_was_run": "as §3"}}}
{"smiles": "NC(=O)C(=O)C(Cc1ccccc1)NC(=O)c1cc(Cl)cnc1-n1ccc(-c2ccccc2)n1", "note": "(stereo not drawn) [Example 27, N-(3-Amino-1-benzyl-2,3-dioxopropyl)-5-chloro-2-(3-phenyl-1H-pyrazol-1-yl)nicotinamide]", "values": [{"measurement": "Sel cat. B: Ki(cathepsin B)/Ki(calpain) ratio", "setting": "cathepsin B", "result": "++ (++ means a Ki(cathepsin B)/Ki(calpain) ratio of ≧30)"}, {"measurement": "Sel cat. K: Ki(cathepsin K)/Ki(calpain) ratio", "setting": "cathepsin K", "result": "+ (+ means 10≦Ki(cathepsin K)/Ki(calpain)<30)"}, {"measurement": "Sel cat. L: Ki(cathepsin L)/Ki(calpain) ratio", "setting": "cathepsin L", "result": "+ (+ means 30≦Ki(cathepsin L)/Ki(calpain)<50)"}]}
{"smiles": "N#Cc1cnc(-n2ccc(-c3ccccc3)n2)c(C(=O)NC(Cc2ccccc2)C(=O)C(N)=O)c1", "note": "(stereo not drawn) [Example 82, N-(3-Amino-1-benzyl-2,3-dioxopropyl)-5-cyano-2-(3-phenyl-1H-pyrazol-1-yl)nicotinamide]", "values": [{"measurement": "Sel cat. B: Ki(cathepsin B)/Ki(calpain) ratio", "setting": "cathepsin B", "result": "++ (++ means a Ki(cathepsin B)/Ki(calpain) ratio of ≧30)"}, {"measurement": "Sel cat. K: Ki(cathepsin K)/Ki(calpain) ratio", "setting": "cathepsin K", "result": "++ (++ means a Ki(cathepsin K)/Ki(calpain) ratio of ≧30)"}, {"measurement": "Sel cat. L: Ki(cathepsin L)/Ki(calpain) ratio", "setting": "cathepsin L", "result": "++ (++ means a Ki(cathepsin L)/Ki(calpain) ratio of ≧50)"}]}
{"smiles": "NC(=O)C(=O)C(Cc1ccccc1)NC(=O)c1cccnc1-n1ccc(-c2cccc(N3CCCC3)c2)n1", "note": "(stereo not drawn) [Example 74, N-(3-Amino-1-benzyl-2,3-dioxopropyl)-2-[3-(3-pyrrolidin-1-ylphenyl)-1H-pyrazol-1-yl]nicotinamide]", "values": [{"measurement": "Sel cat. B: Ki(cathepsin B)/Ki(calpain) ratio", "setting": "cathepsin B", "result": "++ (++ means a Ki(cathepsin B)/Ki(calpain) ratio of ≧30)"}, {"measurement": "Sel cat. K: Ki(cathepsin K)/Ki(calpain) ratio", "setting": "cathepsin K", "result": "++ (++ means a Ki(cathepsin K)/Ki(calpain) ratio of ≧30)"}, {"measurement": "Sel cat. S: Ki(cathepsin S)/Ki(calpain) ratio", "setting": "cathepsin S", "result": "++ (++ means a Ki(cathepsin S)/Ki(calpain) ratio of ≧100)"}]}
{"smiles": "NC(=O)C(=O)C(Cc1ccccc1)NC(=O)c1cccnc1-n1ccc(C2CCCCC2)n1", "note": "(stereo not drawn) [Example 192, N-[3-Amino-2,3-dioxo-1-(phenylmethyl)propyl]-2-(3-cyclohexyl-1H-pyrazol-1-yl)pyridine-3-carboxamide]", "values": [{"measurement": "Sel cat. K: Ki(cathepsin K)/Ki(calpain) ratio", "setting": "cathepsin K", "result": "+ (+ means 10≦Ki(cathepsin K)/Ki(calpain)<30)"}, {"measurement": "Sel cat. L: Ki(cathepsin L)/Ki(calpain) ratio", "setting": "cathepsin L", "result": "++ (++ means a Ki(cathepsin L)/Ki(calpain) ratio of ≧50)"}, {"measurement": "Sel cat. S: Ki(cathepsin S)/Ki(calpain) ratio", "setting": "cathepsin S", "result": "++ (++ means a Ki(cathepsin S)/Ki(calpain) ratio of ≧100)"}]}
{"smiles": "NC(=O)C(=O)C(Cc1ccccc1)NC(=O)c1cccnc1-n1ccc(-c2ccc3c(c2)CCO3)n1", "note": "(stereo not drawn) [Example 75, N-(3-Amino-1-benzyl-2,3-dioxopropyl)-2-[3-(2,3-dihydrobenzo[b]furan-5-yl)-1H-pyrazol-1-yl]nicotinamide]", "values": [{"measurement": "Sel cat. K: Ki(cathepsin K)/Ki(calpain) ratio", "setting": "cathepsin K", "result": "+ (+ means 10≦Ki(cathepsin K)/Ki(calpain)<30)"}, {"measurement": "Sel cat. L: Ki(cathepsin L)/Ki(calpain) ratio", "setting": "cathepsin L", "result": "++ (++ means a Ki(cathepsin L)/Ki(calpain) ratio of ≧50)"}, {"measurement": "Sel cat. S: Ki(cathepsin S)/Ki(calpain) ratio", "setting": "cathepsin S", "result": "++ (++ means a Ki(cathepsin S)/Ki(calpain) ratio of ≧100)"}]}
{"smiles": "Cl.NC(=O)C(=O)C(Cc1ccccc1)NC(=O)c1cccnc1-n1ccc(-c2ccc(N3CCOCC3)cc2)n1", "note": "(stereo not drawn) [Example 29, N-(3-Amino-1-benzyl-2,3-dioxopropyl)-2-[3-(4-morpholin-4-ylphenyl)-1H-pyrazol-1-yl]nicotinamide hydrochloride]", "values": [{"measurement": "Sel cat. K: Ki(cathepsin K)/Ki(calpain) ratio", "setting": "cathepsin K", "result": "+ (+ means 10≦Ki(cathepsin K)/Ki(calpain)<30)"}, {"measurement": "Sel cat. L: Ki(cathepsin L)/Ki(calpain) ratio", "setting": "cathepsin L", "result": "++ (++ means a Ki(cathepsin L)/Ki(calpain) ratio of ≧50)"}, {"measurement": "Sel cat. S: Ki(cathepsin S)/Ki(calpain) ratio", "setting": "cathepsin S", "result": "++ (++ means a Ki(cathepsin S)/Ki(calpain) ratio of ≧100)"}]}
{"smiles": "NC(=O)C(=O)C(CC1CCCCC1)NC(=O)c1cccnc1-n1ccc(-c2ccccc2)n1", "note": "(stereo not drawn) [Example 66, N-[3-Amino-1-(cyclohexylmethyl)-2,3-dioxopropyl]-2-(3-phenyl-1H-pyrazol-1-yl)nicotinamide]", "values": [{"measurement": "Sel cat. K: Ki(cathepsin K)/Ki(calpain) ratio", "setting": "cathepsin K", "result": "+ (+ means 10≦Ki(cathepsin K)/Ki(calpain)<30)"}, {"measurement": "Sel cat. L: Ki(cathepsin L)/Ki(calpain) ratio", "setting": "cathepsin L", "result": "+ (+ means 30≦Ki(cathepsin L)/Ki(calpain)<50)"}, {"measurement": "Sel cat. S: Ki(cathepsin S)/Ki(calpain) ratio", "setting": "cathepsin S", "result": "++ (++ means a Ki(cathepsin S)/Ki(calpain) ratio of ≧100)"}]}
{"smiles": "NC(=O)C(=O)C(Cc1ccccc1)NC(=O)c1cc(Cl)cnc1-n1ccc(-c2ccc(N3CCOCC3)cc2)n1", "note": "(stereo not drawn) [Example 31, N-(3-Amino-1-benzyl-2,3-dioxopropyl)-5-chloro-2-[3-(4-morpholin-4-ylphenyl)-1H-pyrazol-1-yl]nicotinamide]", "values": [{"measurement": "Sel cat. B: Ki(cathepsin B)/Ki(calpain) ratio", "setting": "cathepsin B", "result": "++ (++ means a Ki(cathepsin B)/Ki(calpain) ratio of ≧30)"}, {"measurement": "Sel cat. K: Ki(cathepsin K)/Ki(calpain) ratio", "setting": "cathepsin K", "result": "+ (+ means 10≦Ki(cathepsin K)/Ki(calpain)<30)"}, {"measurement": "Sel cat. L: Ki(cathepsin L)/Ki(calpain) ratio", "setting": "cathepsin L", "result": "+ (+ means 30≦Ki(cathepsin L)/Ki(calpain)<50)"}]}
